In the NIST ThermoML archive (doi:10.1021/je900596d):
Numbers after ± are expanded uncertainties.

Details: 355.18 K, Liquid, Vibrating tube method

FC(F)=C(F)C(F)(F)F [hexafluoropropene]
Details	mass density [kg/m3]
3539.3 kPa	945.7 ± 1.2
3560.5 kPa	947.64 ± 1.2
3582.1 kPa	949.46 ± 1.1
3603.9 kPa	951.17 ± 1.1
3625.9 kPa	953.18 ± 1.1
3667.2 kPa	956.48 ± 1.1
3687.7 kPa	958.15 ± 1.1
3708.3 kPa	959.83 ± 1.1
3730.3 kPa	961.36 ± 1.1
3751.6 kPa	963.12 ± 1.1
3773.4 kPa	964.61 ± 1.1
3795.3 kPa	966.25 ± 1.1
3807.5 kPa	967.13 ± 1.1
3828.9 kPa	968.54 ± 1.1
3851.4 kPa	970.11 ± 1.1
3873.7 kPa	971.7 ± 1.1
3916.8 kPa	974.54 ± 1.1
3938.9 kPa	976.09 ± 1.1
3959.3 kPa	977.28 ± 1.1
3981 kPa	978.83 ± 1.1
4015.2 kPa	980.9 ± 1.1
4033.6 kPa	981.94 ± 1.1
4071.4 kPa	984.1 ± 1.1
4091.9 kPa	985.37 ± 1.1
4110.7 kPa	986.72 ± 1.1
4129.8 kPa	987.54 ± 1.1
4149.4 kPa	988.81 ± 1.1
4167.6 kPa	989.92 ± 1.1
4186.6 kPa	990.96 ± 1.1
4206.8 kPa	992.1 ± 1.1
4226.2 kPa	992.98 ± 1.1
4244.6 kPa	994.12 ± 1.1
4263.6 kPa	995.02 ± 1.1
4281.8 kPa	995.99 ± 1.1
4338 kPa	998.86 ± 1.1
4375.5 kPa	1000.94 ± 1.1
4413 kPa	1002.73 ± 1.1
4449.8 kPa	1004.57 ± 1.1
4487.2 kPa	1006.43 ± 1.1
4525 kPa	1008.13 ± 1.1
4562.1 kPa	1009.97 ± 1.1
4599 kPa	1011.6 ± 1.1
4638.8 kPa	1013.65 ± 1.1
4677.4 kPa	1015.25 ± 1.1
4716.6 kPa	1016.92 ± 1.1
4794.9 kPa	1020.36 ± 1.1
4873.9 kPa	1023.7 ± 1.1
4913.4 kPa	1025.32 ± 1.1
4951 kPa	1026.84 ± 1.1
4991.2 kPa	1028.51 ± 1.1
5029.8 kPa	1029.94 ± 1.1
5070.6 kPa	1031.42 ± 1.1
5113 kPa	1033.05 ± 1.1
5154.1 kPa	1034.66 ± 1.1
5236.8 kPa	1037.65 ± 1.1
5275.8 kPa	1039.14 ± 1.1
5316.9 kPa	1040.61 ± 1.1
5355.6 kPa	1041.9 ± 1.1
5398.7 kPa	1043.42 ± 1.1
5439.2 kPa	1044.89 ± 1.1
5483.2 kPa	1046.3 ± 1.1
5561 kPa	1048.84 ± 1.1
5601.4 kPa	1050.18 ± 1.1
5642.3 kPa	1051.53 ± 1.1
5684.6 kPa	1052.92 ± 1.1
5724.6 kPa	1054.21 ± 1.1
5768.2 kPa	1055.5 ± 1.1
5808.2 kPa	1056.73 ± 1.1
5848.7 kPa	1058.05 ± 1.1
5893.8 kPa	1059.3 ± 1.1
5935.5 kPa	1060.51 ± 1.1
5972.8 kPa	1061.59 ± 1.1
6013.5 kPa	1062.81 ± 1.1
6113.5 kPa	1065.75 ± 1.1
6163.2 kPa	1067.09 ± 1.1
6213.3 kPa	1068.54 ± 1.1
6263.6 kPa	1069.94 ± 1.1
6313.1 kPa	1071.25 ± 1.1
6362.4 kPa	1072.65 ± 1.1
6411 kPa	1074 ± 1.1
6461.2 kPa	1075.29 ± 1.1
6562.7 kPa	1077.95 ± 1.1
6611.5 kPa	1079.21 ± 1.1
6661.1 kPa	1080.53 ± 1.1
6710.9 kPa	1081.81 ± 1.1
6761.1 kPa	1083.05 ± 1.1
6812.8 kPa	1084.3 ± 1.1
6865.2 kPa	1085.67 ± 1.1
6915.7 kPa	1086.78 ± 1.1
6965.9 kPa	1088.01 ± 1.1
7014.9 kPa	1089.29 ± 1.1
7065.8 kPa	1090.44 ± 1.1
7164.6 kPa	1092.85 ± 1.1
7216.4 kPa	1093.92 ± 1.1
7265.8 kPa	1095.06 ± 1.1
7366.2 kPa	1097.33 ± 1.1
7415.2 kPa	1098.43 ± 1.1
7466 kPa	1099.6 ± 1.1
7516.3 kPa	1100.77 ± 1.1
7566.3 kPa	1101.91 ± 1.1
7616.2 kPa	1102.85 ± 1.1
7718.1 kPa	1105.05 ± 1.1
7768.7 kPa	1106.11 ± 1.1
7817.3 kPa	1107.12 ± 1.1
7868.8 kPa	1108.17 ± 1.1
7921.6 kPa	1109.13 ± 1.1
7971.5 kPa	1110.3 ± 1.1
8069.1 kPa	1112.3 ± 1.1
8121.2 kPa	1113.23 ± 1.1
8171.1 kPa	1114.28 ± 1.2
8220.8 kPa	1115.22 ± 1.1
8273.9 kPa	1116.3 ± 1.1
8324.3 kPa	1117.22 ± 1.2
8376.9 kPa	1118.25 ± 1.2
8428.6 kPa	1119.32 ± 1.2
8478.5 kPa	1120.28 ± 1.2
8528.9 kPa	1121.22 ± 1.2
8578.5 kPa	1122.06 ± 1.2
8628.9 kPa	1123.04 ± 1.2
8681.5 kPa	1124 ± 1.2
8731.5 kPa	1124.98 ± 1.2
8781.2 kPa	1125.78 ± 1.2
8835.2 kPa	1126.86 ± 1.2
8886.8 kPa	1127.78 ± 1.2
8989.2 kPa	1129.56 ± 1.2
9039.4 kPa	1130.46 ± 1.2
9089.8 kPa	1131.27 ± 1.2
9138.1 kPa	1132.17 ± 1.2
9187.7 kPa	1132.92 ± 1.2
9238.4 kPa	1133.87 ± 1.2
9290.5 kPa	1134.77 ± 1.2
9339.3 kPa	1135.6 ± 1.2
9390.7 kPa	1136.39 ± 1.2
9440.4 kPa	1137.24 ± 1.2
